Reference: publication PMC9385959, “Mammalian derived lipocalin and secretoglobin respiratory allergens strongly bind ligands with potentially immune modulating properties” (Frontiers in Allergy, 2022)
Several values for one entry are separate records, joined by “and”; a condition that tells them apart may be missing. Equal entries are not always repeated. Where two headings read alike, the source gives them in different places.

Columns and labels:
[1] = biological target: T1, human LCN1 (Homo sapiens, UniProt P31025); assay: Fluorochrome binding to LCN1 (emission spectra and titration); settings: for Kd: multiple binding site analysis
T1 construct: made in house; host or cells: E. coli Rosetta-gami 2(DE3)
T1 sequence (P31025 19-176): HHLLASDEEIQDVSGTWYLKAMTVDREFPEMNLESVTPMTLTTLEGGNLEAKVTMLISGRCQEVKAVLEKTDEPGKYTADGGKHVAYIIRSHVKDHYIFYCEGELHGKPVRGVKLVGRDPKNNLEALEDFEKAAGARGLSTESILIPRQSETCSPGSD
Method: (§1) Stock solutions were prepared at a concentration of 10 mM in 100% ethanol for the fluorochromes 1-aminoanthracene (1-AMA), 8-anilino-1-naphthalensulfonic acid (1,8-ANS) and for all ligands, and in 100% methanol for n-phenyl-1-naphthylamine (1-NPN), respectively. Iron catecholate ligands (siderophores) were prepared as previously described ([46]). Fluorochrome-protein complexes were analyzed at an equimolar concentration of 5 μM in PBS with 5% ethanol in a volume of 100 μL per well in black 96-well non-binding microplates (Greiner Bio-One GmbH, Frickenhausen, Germany). Solutions containing only protein or the respective fluorescent probe in PBS with 5% ethanol served as controls. Fluorochrome-protein complexes were incubated with orbital shaking for 10 min at 500 rpm at room temperature (RT) before measurement using the fluorescence reader TECAN Infinite 200 Pro (Tecan Trading AG, Switzerland). Excitation wavelengths were fixed at 380 nm for 1-AMA and 1,8-ANS, and 337 nm for 1-NPN. Fluorescence emission spectra were recorded in 5 nm steps between 420 and 560 nm for 1-AMA and 1,8-ANS and between 380 and 500 nm for 1-NPN. The establishment of fluorescent quenching assay parameters for each allergen is explained in the results Section Fluorescence-quenching assay set up. Binding affinities were analyzed by non-linear regression in GraphPad Prism Version 9.3.1 (GraphPad Software, LLC). For the ligand competition assays, ligands were added to fluorochrome-allergen complexes with a final buffer composition of 5% ethanol in PBS in a volume of 100 μL and incubated for 30 min at 500 rpm at RT and further equilibrated for another 30 min without shaking before fluorescence measurement.
(§2) We established four specific parameters for each allergen to set up a fluorescence quenching assay for screening a large array of potential ligands: (i) a compatible fluorochrome, (ii) the optimal emission wavelength to analyze the fluorescence intensities of the fluorochrome-allergen complex, (iii) the binding affinities of the fluorochrome-allergen complex (Kd values) and (iv) optimal fluorochrome concentrations (EC50 values).
For each allergen, we identified a suitable fluorescence probe by adding equimolar concentrations of either 1-AMA or 1,8-ANS to the recombinant proteins. […] 1-AMA was chosen for the guinea pig lipocalin Cav p 1 isoallergens, rabbit lipocalin Ory c 2, and rabbit secretoglobin Ory c 3. Fluorescence intensities increased 20–60-fold upon binding. While the emission maxima shifted from 565 to 485 nm for lipocalin fluorochrome-allergen pairs, the blue shift was less pronounced for the Ory c 3 secretoglobin-1-AMA complex to 505 nm (Figure 4B). […] Respective Kd were calculated after background subtraction (Figure 4B). […]
We evaluated the binding affinities of the fluorochromes to the allergens by dose-dependent titration curves. […] Fluorescence intensities were recorded at specific emission maxima for each fluorochrome-allergen complex, determined using the emission spectra shown in Figure 4. We analyzed the specific binding of fluorochrome-allergen complexes by non-linear regression and calculated equilibrium dissociation constants (Kd) and EC50 values (Table 2). […] We chose a one-site specific binding model for all allergens, except for human LCN1, where multiple binding site analysis emerged as the model of best fit and two Kd values were calculated. […]

[2] = biological target: T2, Fel d 4 (Felis catus, UniProt Q5VFH6); assay: Fluorochrome binding to Fel d 4 (emission spectra and titration); parameters: species or system cat; settings: 5 μM Fel d 4 with 5 μM fluorochrome
T2 construct: polyhistidine tag (C); made in house; host or cells: E. coli Rosetta-gami 2
T2 sequence (Q5VFH6 16-186): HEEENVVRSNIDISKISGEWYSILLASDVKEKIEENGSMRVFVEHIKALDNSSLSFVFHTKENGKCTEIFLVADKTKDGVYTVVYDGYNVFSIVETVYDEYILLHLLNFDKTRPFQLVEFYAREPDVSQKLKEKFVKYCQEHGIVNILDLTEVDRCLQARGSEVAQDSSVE
Method: as §1, §2
(§3) For each allergen, we identified a suitable fluorescence probe by adding equimolar concentrations of either 1-AMA or 1,8-ANS to the recombinant proteins. […] 1-AMA was chosen for the guinea pig lipocalin Cav p 1 isoallergens, rabbit lipocalin Ory c 2, and rabbit secretoglobin Ory c 3. Fluorescence intensities increased 20–60-fold upon binding. While the emission maxima shifted from 565 to 485 nm for lipocalin fluorochrome-allergen pairs, the blue shift was less pronounced for the Ory c 3 secretoglobin-1-AMA complex to 505 nm (Figure 4B). […] Respective Kd were calculated after background subtraction (Figure 4B). As ethanol gave a high background with 1-NPN, these experiments were carried out with methanol to […] the signal-to-noise-ratio.
(§4) We evaluated the binding affinities of the fluorochromes to the allergens by dose-dependent titration curves. Increasing fluorochrome concentrations were added to a fixed protein concentration of 5 μM until saturation (Figure 5). Fluorescence intensities were recorded at specific emission maxima for each fluorochrome-allergen complex, determined using the emission spectra shown in Figure 4. We analyzed the specific binding of fluorochrome-allergen complexes by non-linear regression and calculated equilibrium dissociation constants (Kd) and EC50 values (Table 2). EC50 values are equal to fluorochome concentrations in which half of the allergen binding sites are saturated and these concentrations were used in subsequent ligand competition assays. We chose a one-site specific binding model for all allergens, except for human LCN1, where multiple binding site analysis emerged as the model of best fit and two Kd values were calculated. Evidence for internal and external binding sites for 1,8-ANS and LCN1 were already reported ([58]).

[3] = biological target: T3, Fel d 1 (Felis catus, UniProt P30438+P30440); assay: Fluorochrome binding to Fel d 1 (emission spectra and titration); parameters: species or system cat
T3 construct: polyhistidine tag (C); made in house; host or cells: E. coli Rosetta-gami 2
T3 sequence (P30438+P30440 with tags, fused parts or gaps): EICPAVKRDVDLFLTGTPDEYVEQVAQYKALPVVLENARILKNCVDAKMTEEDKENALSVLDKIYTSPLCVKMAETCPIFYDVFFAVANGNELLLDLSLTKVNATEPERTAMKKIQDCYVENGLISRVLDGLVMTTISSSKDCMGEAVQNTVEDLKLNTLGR
Method: as §1, §2, §3, §4

[4] = biological target: T4, Can f 1 (Canis lupus familiaris, UniProt O18873); assay: Fluorochrome binding to Can f 1 (emission spectra and titration); parameters: species or system dog
T4 construct: made in house; host or cells: E. coli Rosetta-gami 2(DE3)
T4 sequence (O18873 19-174): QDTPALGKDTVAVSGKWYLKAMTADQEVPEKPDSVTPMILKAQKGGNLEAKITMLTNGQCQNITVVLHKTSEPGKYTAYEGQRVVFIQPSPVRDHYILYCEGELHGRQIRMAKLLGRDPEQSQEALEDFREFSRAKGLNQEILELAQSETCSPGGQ
Method: as §1, with “measurement. […]” for “measurement.”
For each allergen, we identified a suitable fluorescence probe by adding equimolar concentrations of either 1-AMA or 1,8-ANS to the recombinant proteins. […] Fluorescence intensities increased 20–60-fold upon binding. […] Respective Kd were calculated after background subtraction (Figure 4B). […]
We evaluated the binding affinities of the fluorochromes to the allergens by dose-dependent titration curves. […]

[5] = biological target: T5, Can f 6 (Canis lupus familiaris, UniProt H2B3G5); assay: Fluorochrome binding to Can f 6 (emission spectra and titration); parameters: species or system dog; settings: 5 μM Can f 6 with 5 μM fluorochrome
T5 construct: polyhistidine tag (C); made in house; host or cells: E. coli Rosetta-gami 2
T5 sequence (H2B3G5 16-190): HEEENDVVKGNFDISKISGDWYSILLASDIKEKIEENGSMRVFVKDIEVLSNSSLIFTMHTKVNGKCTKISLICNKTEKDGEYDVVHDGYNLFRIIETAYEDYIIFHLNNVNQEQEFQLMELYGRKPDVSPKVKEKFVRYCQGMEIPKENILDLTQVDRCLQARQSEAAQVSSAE
Method: as §1, §2, §3, §4

[6] = biological target: T1, human LCN1; assay: Competitive fluorescence-quenching assay, LCN1; type: binding
Method: (§5) Fluorescence quenching assays were performed as previously described ([45]), with modifications. Fluorochromes and ligands were purchased from Sigma Aldrich (Steinheim, Germany), Carl Roth (Karlsruhe, Germany) and TCI Europe N.V. (Zwijndrecht, Belgium).
as §1
(§6) The binding affinities of non-fluorescent ligands is inferred to by their ability to compete and displace the fluorochromes bound to the allergen at a certain concentration. This leads to a measurable decrease in fluorescence intensity that will be expressed as fluorescence inhibition (Figure 6). For a given allergen, the ligand with the strongest inhibition has the highest binding affinity. […] Competitive ligand binding was analyzed by non-linear regression and inhibitory dissociation constants (Ki) were calculated.

[7] = biological target: T4, Can f 1; assay: Competitive fluorescence-quenching assay, Can f 1; type: binding, dog
Method: as §5, §1, §6

[8] = 5 μM LCN1-1,8-ANS complex, 50 μM ligand, n = 2

O=S(=O)(O)c1cccc2cccc(Nc3ccccc3)c12 [1,8-ANS, 8-anilino-1-naphthalensulfonic acid]
Kd ([1]; 5 μM LCN1, first binding site, read-out: Fluorochrome dissociation constant Kd): 5 µM | Kd ([1]; 5 μM LCN1, second binding site, read-out: Fluorochrome dissociation constant Kd, second binding site): 64.7 µM | EC50 ([1]; 5 μM LCN1, read-out: EC50 fluorochrome concentration): 7.1 µM | Increase of fluorescence intensity upon binding ([1]; 5 μM LCN1 with 5 μM fluorochrome): > 100 fold | Kd at the second binding site relative to the first (higher Kd) ([1]; LCN1): 13 fold | Increase of fluorescence intensity upon binding [2]: neither reacted | Kd ([3]; 5 μM Fel d 1, one-site specific binding, read-out: Fluorochrome dissociation constant Kd): 149 µM | EC50 ([3]; 5 μM Fel d 1, read-out: EC50 fluorochrome concentration): 99.8 µM | Increase of fluorescence intensity upon binding ([3]; 5 μM Fel d 1 with 5 μM fluorochrome): 8 fold | EC50 ([4]; 5 μM Can f 1, half of the allergen binding sites saturated, read-out: EC50 fluorochrome concentration): 6.4 µM | Kd ([4]; 5 μM Can f 1, one-site specific binding, read-out: Fluorochrome dissociation constant Kd): 6.8 µM | Increase of fluorescence intensity upon binding ([4]; 5 μM Can f 1 with 5 μM fluorochrome): > 100 fold | Increase of fluorescence intensity upon binding [5]: neither reacted

Lipopolysaccharide
Mean fluorescence inhibition [6, 8]: 81% and 81.2% | Mean fluorescence inhibition ([7]; 5 μM Can f 1-1,8-ANS complex, 50 μM ligand, n = 2): 57.4%

CCCCC/C=C\C/C=C\C/C=C\C/C=C\CCCC(=O)O [Arachidonic acid, arachidonic acid]
Ki ([6]; 5 μM LCN1, fluorochrome 1,8-ANS, read-out: Ligand inhibition constant Ki): 1.9 µM | inhibition at 50 µM [6, 8]: 96.7% | Ki [7]: 1.3 µM | inhibition at 50 µM ([7]; read-out: Mean fluorescence inhibition): 86.4%

CN(C)c1cccc2c(S(=O)(=O)NCCCCCCCCCCC(=O)O)cccc12 [DAUDA, 11-(Dansylamino)undecanoic acid]
Increase of fluorescence intensity upon binding [2]: neither reacted | Increase of fluorescence intensity upon binding [5]: neither reacted
